Test results published in US6664269B2, “Isoquinolinone derivatives” (Maybridge plc, priority 2001, dated 2003).

Experiments:
[1] = system: HeLa cells; assay: Dose Enhancing Factor: potentiation of bleomycin cell growth inhibition (SRB assay); format: cell-based; settings: test compound 25 μM, bleomycin 0.5 μg/ml
Experimental: The Dose Enhancing Factor (DEF) is a ratio of the enhancement of cell growth inhibition elicited by the test compound in the presence of bleomycin compared to bleomycin alone. The test compounds were used at a fixed concentration of 25 μM. Bleomycin was used at a concentration of 0.5 μg/ml. The DEF was calculated from the formula: [formula]
GrowthTC is cell growth in presence of the test compound;
GrowthControl is cell growth of control cells;
Growthbleo is cell growth in presence of bleomycin; and
Growth(bleo+TC) is cell growth in presence of bleomycin and the test compound.
Cell growth was assessed using the sulforhodamine B (SRB) assay (Skehan, P., et al., 1990, J. Natl. Cancer Inst., 82, 1107-1112). 2,000 HeLa cells were seeded into each well of a flat-bottomed 96-well microtiter plate in a volume of 100 μl and incubated for 6 hours at 37° C. Cells were either replaced with media alone or with media containing the test compound at a final concentration of 25 μM. Cells were allowed to grow for a further 1 hour before the addition of bleomycin to either untreated cells or test compound treated cells. Cells untreated with either bleomycin or test compound were used as a control. Cells treated with test compound alone were used to assess the growth inhibition by the test compound.
Cells were left for a further 16 hours before replacing the media and allowing the cells to grow for a further 72 hours at 37° C. The media was then removed and the cells fixed with 100 μl of ice cold 10% (w/v) trichloroacetic acid. The plates were incubated at 4° C. for 20 minutes and then washed four times with water. Each well of cells was then stained with 100 μl of 0.4% (w/v) SRB in 1% acetic acid for 20 minutes before washing four times with 1% acetic acid. Plates were then dried for 2 hours at room temperature. The dye from the stained cells was solubilized by the addition of 100 μl of 10 mM Tris Base into each well. Plates were gently shaken and left at room temperature for 30 minutes before measuring the optical density at 564 nm on a Microquant microtiter plate reader.

melting point [°C]	Compound	DEF (Dose Enhancing Factor) [1]
216 to 218	COc1ccc(Cc2cc3ccccc3c(=O)[nH]2)cc1 [Compound 1, 3-(4-methoxybenzyl)-1-isoquinolinone]	1.15
198 to 200	O=c1[nH]c(CCc2ccccc2)cc2ccccc12 [Compound 2, 3-(2-Phenylethyl)-1-isoquinolinone]	1.4
179 to 180	CCC(c1ccccc1)c1cc2ccccc2c(=O)[nH]1 (stereo not drawn) [Compound 3, 3-(1-Phenylpropyl)-1-isoquinolinone]	–
208 to 210	COc1cccc(Cc2cc3ccccc3c(=O)[nH]2)c1 [Compound 4, 3-(3-Methoxybenzyl)-1-isoquinolinone]	1.2
193 to 195	O=c1[nH]c(Cc2ccccc2)cc2ccccc12 [Compound 5, 3-Benzyl-1-isoquinolinone]	1.1
238 to 240	O=c1[nH]c(Cc2ccc(F)cc2)cc2ccccc12 [Compound 6, 3-(4-Fluorobenzyl)-1-isoquinolinone]	–
225 to 227	O=c1[nH]c(Cc2cccc(O)c2)cc2ccccc12 [Compound 7, 3-(3-hydroxybenzyl)isoquinolinone]	1.2
217 to 220	O=c1[nH]cc(Cc2ccccc2)c2ccccc12 [Compound 8, 4-benzyl-1-isoquinolinone]	–
185 to 188	O=c1[nH]cc(Cc2ccc(F)cc2)c2ccccc12 [Compound 9, 4-(4-Fluorobenzyl)-1-isoquinolinone]	–
148 to 150	O=c1[nH]cc(Cc2ccc(F)c(F)c2)c2ccccc12 [Compound 10, 4-(3,4-Difluorobenzyl)-1-isoquinolinone]	–
132 to 134	O=c1[nH]cc(Cc2cccc(F)c2)c2ccccc12 [Compound 11, 4-(3-Fluorobenzyl)-1-isoquinolinone]	–
85 to 88	N#Cc1cccc(Cc2c[nH]c(=O)c3ccccc23)c1 [Compound 12, 4-(3-Cyanobenzyl)-1-isoquinolinone]	–
180 to 182	O=c1[nH]cc(Cc2ccc(Br)cc2)c2ccccc12 [Compound 13, 4-(4-Bromobenzyl)-1-isoquinolinone]	–
